Results taken from patent publication US5922742A, “Pyridinyl-2-cyclopenten-1-ones as selective cyclooxygenase-2 inhibitors” (Merck Frosst Canada, priority 1997, dated 1999).

What was measured:
[1] = target: T1, Cox-2 (Homo sapiens, UniProt P35354); test: Human whole blood assay, COX-2 (LPS-induced PGE2 production); assay type: cell-based; conditions: for Selectivity Ratio: Cox-1 U937 IC50 / Cox-2 Whole Blood IC50; for IC50: human whole blood, LPS-induced PGE2, 24 hours at 37° C
T1 construct: active only after incubation of human whole blood with LPS, which induces COX-2; endogenous in cells; host or cells: fresh heparinized human whole blood from volunteers, incubated with LPS
T1 sequence (P35354 18-604): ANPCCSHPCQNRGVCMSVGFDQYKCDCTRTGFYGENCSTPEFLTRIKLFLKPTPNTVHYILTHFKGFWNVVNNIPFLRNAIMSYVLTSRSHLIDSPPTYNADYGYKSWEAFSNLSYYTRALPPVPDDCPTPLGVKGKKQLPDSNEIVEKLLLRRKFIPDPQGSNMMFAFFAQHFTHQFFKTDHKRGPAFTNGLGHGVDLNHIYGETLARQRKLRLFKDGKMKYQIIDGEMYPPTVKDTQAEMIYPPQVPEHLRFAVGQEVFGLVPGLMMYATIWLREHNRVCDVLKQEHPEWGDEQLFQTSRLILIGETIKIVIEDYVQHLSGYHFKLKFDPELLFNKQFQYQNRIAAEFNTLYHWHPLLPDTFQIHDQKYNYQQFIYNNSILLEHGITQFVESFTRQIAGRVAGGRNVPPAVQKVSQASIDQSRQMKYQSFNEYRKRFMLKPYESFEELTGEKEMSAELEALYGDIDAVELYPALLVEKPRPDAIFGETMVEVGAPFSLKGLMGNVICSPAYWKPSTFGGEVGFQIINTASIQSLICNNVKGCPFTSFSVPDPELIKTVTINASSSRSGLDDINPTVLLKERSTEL
From the text: As well, platelets in whole blood contain a large amount of the COX-1 enzyme. Immediately following blood clotting, platelets are activated through a thrombin-mediated mechanism. This reaction results in the production of thromboxane B2 (TxB2) via activation of COX-1. Thus, the effect of test compounds on TxB2 levels following blood clotting can be examined and used as an index for COX-1 activity. Therefore, the degree of selectivity by the test compound can be determined by measuring the levels of PGE2 after LPS induction (COX-2) and TxB2 following blood clotting (COX-1) in the same assay.
A. COX-2 (LPS-induced PGE2 production)
Fresh blood is collected in heparinized tubes by venipuncture from both male and female volunteers. The subjects have no apparent inflammatory conditions and have not taken any NSAIDs for at least 7 days prior to blood collection. Plasma is immediately obtained from a 2 mL blood aliquot to use as blank (basal levels of PGE2). The remaining blood is incubated with LPS (100 μg/ml final concentration, Sigma Chem, #L-2630 from E. coli; diluted in 0.1% BSA (Phosphate buffered saline) for 5 minutes at room temperature. Five hundred μL aliquots of blood are incubated with either 2μL of vehicle (DMSO) or 2 μL of a test compound at final concentrations varying from […] to 30μM for 24 hours at 37° C. At the end of the incubation, the blood is centrifuged at 12,000×g for 5 minutes to obtain plasma. A 100μL aliquot of plasma is mixed with 400 μL of methanol for protein precipitation. The supernatant is obtained and is assayed for PGE2 using a radioimmunoassay kit (Amersham, RPA#530) after conversion of PGE2 to its methyl oximate derivative according to the manufacturer's procedure. […]

[2] = system: carrageenan-induced paw edema in rats; test: Rat paw edema assay (carrageenan); assay type: in vivo, Male Sprague-Dawley rats; conditions: po, 1 hr before carrageenan, paw volume 3 hr after
Description: Male Sprague-Dawley rats (150-200 g) are fasted overnight and are given, po, either vehicle (1% methocel or 5% Tween 80) or a test compound. One hr later, a line is drawn using a permanent marker at the level above the ankle in one hind paw to define the area of the paw to be monitored. The paw volume (V0) is measured using a plethysmometer (Ugo-Basile, Italy) based on the principle of water displacement. The animals are then injected subplantarly with 50 μt of 1% carrageenan solution in saline (FMC Corp, Maine) into the paw using an insulin syringe with a 25-gauge needle (i.e. 500 μg carrageenan per paw). Three hr later, the paw volume (V3) is measured and the increases in paw volume (V3 -V0) are calculated. The animals are sacrificed by CO2 asphyxiation and the absence or presence of stomach lesions scored. Data is compared with the vehicle-control values and percent inhibition calculated. All treatment groups are coded to eliminate observer bias.

[3] = target: T2, Cox-1 (Homo sapiens, UniProt P23219); test: Cox-1 U937 (PGE2 synthesis); assay type: cell-based
T2 construct: human U-937 cells (which specifically express COX-1); endogenous in cells; host or cells: human U-937 cells (whole cells or their microsomes)
Description: Compounds are tested as inhibitors of cyclooxygenase activity in whole cell cyclooxygenase assays. Both of these assays measure prostaglandin E2 synthesis in response to AA, using a radioimmunoassay. Cells used for these assays are human osteosarcoma 143 cells (which specifically express COX-2) and human U-937 cells (which specifically express COX-1). […] For cyclooxygenase assays, osteosarcoma cells are cultured in 1 mL of media in 24-well multidishes (Nunclon) until confluent (1-2 ×10^5 cells/well). U-937 cells are grown in spinner flasks and resuspended to a final density of 1.5×10^6 cells/mL in 24well multidishes (Nunclon). Following washing and resuspension of osteosarcoma and U-937 cells in 1 mL of HBSS, 1 μL of a DMSO solution of test compound or DMSO vehicle is added, and samples gently mixed. All assays are performed in triplicate. […] AA (peroxide-free, Cayman Chemical) is prepared as a 10 mM stock solution in ethanol and further diluted 10-fold in HBSS. […] Control samples are incubated with ethanol vehicle instead of AA. Samples are again gently mixed and incubated for a further 10 min. at 37° C. For osteosarcoma cells, reactions are then stopped by the addition of 100 μL of 1N HCl, with mixing and by the rapid removal of the solution from cell monolayers. For U-937 cells, reactions are stopped by the addition of 100 μL of 1N HCl, with mixing. Samples are then neutralized by the addition of 100 μL of 1N NaOH and PGE2 levels measured by radioimmunoassay. Assay of COX-1 Activity from U937 cell microsomes U 937 cells are pelleted by centrifugation at 500×g for 5 min and washed once with phosphate-buffered saline and repelleted. Cells are resuspended in homogenization buffer consisting of 0.1M Tris-HCl, pH 7.4, 10 mM EDTA, 2 μg/ml leupeptin, 2 μg/ml soybean trypsin inhibitor, 2 μg/ml aprotinin and 1 mM phenyl methyl sulfonyl fluoride. The cell suspension is sonicated 4 times for 10 sec and is centrifuged at 10,000×g for 10 min at 4° C. The supernatant is centrifuged at 100,000×g for 1 hr at 4° C. The 100,000×g microsomal pellet is resuspended in 0.1M Tris-HCl, pH 7.4, 10 mM EDTA to approximately 7 mg protein/ml and stored at -80° C. […] Assays are performed in duplicate in a final volume of 250 μl. Initially, 5 μl of DMSO vehicle or drug in DMSO are added to 20 μl of 0.1M Tris-HCl buffer, pH 7.4 containing 10 mM EDTA in wells of a 96-deepwell polypropylene titre plate. 200 μl of the microsomal preparation are then added and pre-incubated for 15 min at room temperature before addition of 25 μl of […] arachidonic acid in 0.1M Tris-HCl and 10 mM EDTA, pH 7.4. Samples are incubated for 40 min at room temperature and the reaction is stopped by the addition of 25 μl of 1N HCl. Samples are neutralized with 25 μl of 1N NaOH prior to quantitation of PGE2 content by radioimmunoassay (Dupont-NEN or Amersham assay kits). Cyclooxygenase activity is defined as the difference between PGE2 levels in samples incubated in the presence of arachidonic acid and ethanol vehicle. Compounds of the present invention are inhibitors of COX-2 and are thereby useful in the treatment of COX-2 mediated diseases as enumerated above. The activities of the compounds against cyclooxygenase may be seen in the representative results shown below. In the assay, inhibition is determined by measuring the amount of prostaglandin E2 (PGE2) synthesized in the presence of AA, COX-1 or COX-2 and a putative inhibitor. […]

T2 sequence (P23219 24-599): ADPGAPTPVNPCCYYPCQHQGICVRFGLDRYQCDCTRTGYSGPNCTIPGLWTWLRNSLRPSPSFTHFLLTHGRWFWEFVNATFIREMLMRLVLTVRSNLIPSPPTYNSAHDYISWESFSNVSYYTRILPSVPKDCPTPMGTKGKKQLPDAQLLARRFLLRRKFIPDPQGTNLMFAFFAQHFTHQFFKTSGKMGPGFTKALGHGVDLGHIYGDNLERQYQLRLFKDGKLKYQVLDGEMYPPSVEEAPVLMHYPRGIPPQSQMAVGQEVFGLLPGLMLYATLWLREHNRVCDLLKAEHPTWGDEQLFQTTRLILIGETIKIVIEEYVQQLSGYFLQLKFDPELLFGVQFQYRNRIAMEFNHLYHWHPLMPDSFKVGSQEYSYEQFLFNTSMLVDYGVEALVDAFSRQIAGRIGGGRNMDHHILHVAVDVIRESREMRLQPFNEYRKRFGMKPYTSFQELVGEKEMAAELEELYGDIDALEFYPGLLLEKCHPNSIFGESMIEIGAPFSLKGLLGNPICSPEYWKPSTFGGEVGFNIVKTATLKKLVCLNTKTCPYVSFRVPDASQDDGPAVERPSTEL

CS(=O)(=O)c1ccc(C2=C(c3ccc(F)cc3)C(=O)CC2)cc1 [A] was tested, and the “Selectivity Ratio” value [1] was 5, the IC50 [1] was 90 nM and the ED50 [2] was 3 mg/kg.
CS(=O)(=O)c1ccc(C2=C(c3ccccc3)C(=O)CC2)cc1 [B] was tested, and the IC50 [3] was 1900 nM, the “Selectivity Ratio” value [1] was 10 and the IC50 [1] was 190 nM. It also gave an ED50 [2] of 10 mg/kg.
CS(=O)(=O)c1ccc(C2=C(c3ccc4cccnc4c3)C(=O)OC2)cc1 [C] was tested, and the IC50 [3] was 600 nM, the “Selectivity Ratio” value [1] was 1 and the IC50 [1] was 590 nM.
With CS(=O)(=O)c1ccc(C2=C(c3cccnc3)C(=O)CC2)cc1 [Example 1, 3-(4-(Methylsulfonyl)phenyl)-2-(3-pyridinyl)-2-cyclopenten-1-one] the IC50 [3] was 30000 nM, the “Selectivity Ratio” value [1] was 52 and the IC50 [1] was 580 nM. It also gave an ED50 [2] of 1.7 mg/kg.
Compound CS(=O)(=O)c1ccc(C2=C(c3cncc(Cl)c3)C(=O)CC2)cc1 [Example 2, 2-(5-Chloropyridin-3-yl)-3-(4-(methylsulfonyl)phenyl)-2-cyclopenten-1-one] has an IC50 [3] greater than 100000 nM.
In the case of CS(=O)(=O)c1ccc(C2=C(c3ccc(Cl)cn3)C(=O)CC2)cc1 [Example 10, 2-(5-Chloro-2-pyridinyl)-3-(4-(methylsulfonyl)phenyl)-2-cyclopenten-1-one], the IC50 [3] is reported as 36000 nM, the “Selectivity Ratio” value [1] is reported as 78 and the IC50 [1] is reported as 460 nM. For the same compound, the ED50 [2] was 2.5 mg/kg.
